Results: patent publication US8497279B2, “Treatment for discoid lupus” (Rigel Pharmaceuticals, Inc., priority 2011, dated 2013)
Structures can show the parent of a compound that is named as a salt. Where two headings read alike, the source gives them in different places. One block for each molecule: values may come before it.

Tests used:
[1] = system: receptor tyrosine kinase (RTK); experiment: Receptor tyrosine kinase (RTK) signaling; assay type: cell-based
IL-1β = experiment: Other cytokine signaling (IL-1β); assay type: cell-based
cell proliferation = experiment: Cell proliferation (broad inhibition); assay type: cell-based
TNFα = experiment: Other cytokine signaling (TNFα); assay type: cell-based
Syk = target: T1, Syk (Homo sapiens, UniProt P43405); experiment: Human cell based assay against Syk; conditions: human cell based assays; read-out: half maximal effective concentration (EC50) against Syk
T1 construct: endogenous in cells

JAK3 = target: T2, JAK3 (Homo sapiens, UniProt P52333); experiment: Human cell based assay against JAK3; conditions: human cell based assays; read-out: half maximal effective concentration (EC50) against JAK3
T2 construct: endogenous in cells
T2 sequence (P52333 1-1124): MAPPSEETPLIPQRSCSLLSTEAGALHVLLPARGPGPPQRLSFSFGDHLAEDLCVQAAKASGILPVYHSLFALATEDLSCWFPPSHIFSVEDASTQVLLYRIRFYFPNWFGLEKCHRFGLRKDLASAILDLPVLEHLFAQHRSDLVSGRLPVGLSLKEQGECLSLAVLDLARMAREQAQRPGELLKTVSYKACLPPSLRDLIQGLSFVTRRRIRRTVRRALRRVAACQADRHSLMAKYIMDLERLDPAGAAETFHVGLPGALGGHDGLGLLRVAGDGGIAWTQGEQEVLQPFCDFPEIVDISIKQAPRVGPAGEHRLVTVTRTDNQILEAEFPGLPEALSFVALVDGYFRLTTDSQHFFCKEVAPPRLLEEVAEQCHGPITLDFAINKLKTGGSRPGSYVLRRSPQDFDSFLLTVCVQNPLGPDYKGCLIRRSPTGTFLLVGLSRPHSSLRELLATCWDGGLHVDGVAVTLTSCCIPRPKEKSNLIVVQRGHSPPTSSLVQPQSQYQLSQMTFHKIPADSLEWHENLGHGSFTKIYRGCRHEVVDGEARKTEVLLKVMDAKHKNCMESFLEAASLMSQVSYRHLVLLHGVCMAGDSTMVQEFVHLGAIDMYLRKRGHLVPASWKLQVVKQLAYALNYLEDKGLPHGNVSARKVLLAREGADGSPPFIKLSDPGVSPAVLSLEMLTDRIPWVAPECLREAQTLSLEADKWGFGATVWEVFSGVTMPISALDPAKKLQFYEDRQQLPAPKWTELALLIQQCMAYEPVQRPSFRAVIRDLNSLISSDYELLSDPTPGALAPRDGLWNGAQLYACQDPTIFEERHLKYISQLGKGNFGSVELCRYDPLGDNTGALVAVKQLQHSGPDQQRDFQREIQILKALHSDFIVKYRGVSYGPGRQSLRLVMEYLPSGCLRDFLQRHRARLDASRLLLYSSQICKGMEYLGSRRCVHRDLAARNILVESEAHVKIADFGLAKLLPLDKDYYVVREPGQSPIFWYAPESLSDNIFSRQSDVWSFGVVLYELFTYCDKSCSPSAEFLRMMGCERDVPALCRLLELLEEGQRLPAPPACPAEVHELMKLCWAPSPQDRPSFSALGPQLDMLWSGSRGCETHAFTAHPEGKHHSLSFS

JAK1 and JAK3 kinases = experiment: Ramos B-cell line stimulated with IL-4, CD23 upregulation (FACS); assay type: cell-based, human
Experimental: One means of assaying for JAK inhibition is detection of the effect of compounds I and II on the upregulation of downstream gene products. In the Ramos/IL4 assay, B-cells are stimulated with the cytokine Interleukin-4 (IL-4) leading to the activation of the JAK/Stat pathway through phosphorylation of the JAK family kinases, JAK1 and JAK3, which in turn phosphorylate and activate the transcription factor Stat-6. […] Twenty to 24 hours post stimulation, cells are stained for upregulation of CD23 and analyzed using flow cytometry (FACS). […] An exemplary assay of this type is described in greater detail below. B-cells stimulated with cytokine Interleukin-4 (IL-4) activate the JAK/Stat pathway through phosphorylation of the JAK family kinases, JAK-1 and JAK-3, which in turn phosphorylate and activate the transcription factor Stat-6. […] To study the effect of inhibitors on the JAK family kinases, human Ramos B cells are stimulated with human IL-4. The Ramos B-cell line was acquired from [NT] No. CRL-1596). The cells were cultured in RPMI 1640 (Cellgro, MediaTech, Inc., Herndon, Va., Cat No. 10-040-CM) with 10% fetal bovine serum (FBS), heat inactivated (JRH Biosciences, Inc, Lenexa, Kans., Cat No. 12106-500M) according to ATCC propagation protocol. Cells were maintained at a density of 3.5×10^5. The day before the experiment, Ramos B-cells were diluted to 3.5×10^5 cells/mL to ensure that they were in a logarithmic growth phase. Cells were spun down and suspended in RPMI with 5% serum. 5×10^4 cells were used per point in a 96-well tissue culture plate. Cells were pre-incubated with compound or DMSO (Sigma-Aldrich, St. Louis, Mo., Cat No. D2650) vehicle control for 1 hour in a 37° C. incubator. Cells were then stimulated with IL-4 (Peprotech Inc., Rocky Hill, N.J., Cat No. 200-04) for a final concentration of 50 units/mL for 20-24 hours. Cells were then spun down and stained with anti-CD23-PE(BD Pharmingen, San Diego, Calif., Cat No. 555711) and analyzed by FACS. Detection was performed using a BD LSR I System Flow Cytometer, purchased from Becton Dickinson Biosciences of San Jose, Calif.

primary human T-cells = experiment: Primary human T-cell proliferation assay stimulated with IL-2 (CellTiter-Glo); assay type: cell-based; conditions: read-out: Example 4 IC50
Excerpt: In this assay, primary human T-cells derived from peripheral blood and pre-activated through stimulation of the T-cell receptor and CD28, proliferate in culture in response to the cytokine Interleukin-2 (IL-2). This proliferative response is dependent on the activation of JAK1 and JAK3 tyrosine kinases, which phosphorylate and activate the transcription factor Stat-5. […] A reduction in cell proliferation compared to control conditions is indicative of inhibition of the JAK kinase pathway. An exemplary assay of this type is described in greater detail below.
Primary human T-cells derived from peripheral blood and pre-activated through stimulation of the T-cell receptor and CD28, proliferate in vitro in response to the cytokine Interleukin-2 (IL-2). This proliferative response is dependent on the activation of JAK-1 and JAK-3 tyrosine kinases, which phosphorylate and activate the transcription factor Stat-5.
Human primary T cells were prepared as follows. […] The lymphocytes at the serum: ficoll interface were recovered and washed twice with 5 volumes of PBS. […] The primary T-cells were stimulated for 3-4 days, then transferred to a fresh flask and maintained in RPMI with 10% FBS and 40 U/mL IL-2.
Primary T-cells were washed twice with PBS to remove the IL-2 and resuspended in Yssel's medium at 2×10^6 cells/mL. 50 μL of cell suspension containing 80 U/mL IL-2 was added to each well of a flat bottom 96 well black plate. For the unstimulated control, IL-2 was omitted from the last column on the plate. […] 50 μL of 2× compound was added per well in duplicate and the cells were allowed to proliferate for 72 hours at 37° C.
Proliferation was measured using CellTiter-Glo® Luminescent Cell Viability Assay (Promega), which determines the number of viable cells in culture based on quantitation of the ATP present, as an indicator of metabolically active cells. The substrate was thawed and allowed to come to room temperature. After mixing the Cell Titer-Glo reagent and diluent together, 100 μL was added to each well. […]

JAK/Stat pathway = experiment: U937 IFNγ ICAM1 FACS assay; assay type: cell-based, human; conditions: U937 cells, IFNγ 10 ng/mL, 18-24 hours, ICAM-1 expression; read-out: Example 6 IC50
Experimental: U937 human monocytic cells up-regulate ICAM-1 (CD54) surface expression in response to a variety of different stimuli. Therefore, using ICAM-1 expression as readout, compound effects on different signaling pathways can be assessed in the same cell type. IFNγ up-regulates ICAM-1 through activation of the JAK/Stat pathway. In this example, the up-regulation of ICAM-1 by IFNγ was assessed.
U937 cells were grown in 10% RPMI. The cells were then plated at a concentration of 100,000 cells per 160 μL in 96 well flat bottom plates. […] Then 4 μL of test compound was transferred to 76 μL of 10% RPMI resulting in a 10× solution (100 μM test compound, 5% DMSO). For control wells, 4 μL of DMSO was diluted into 76 μL 10% RPMI.
The assay was performed in duplicate with 8 points (8 3-fold dilution concentrations from […]) and with 4 wells of DMSO only (control wells) under stimulated conditions and 4 wells of DMSO only under unstimulated conditions.
The diluted compound plate was mixed 2× using a multimek (Beckman Coulter of Brea, Calif.) and then 20 μL of the diluted compounds was transferred to the 96 well plate containing 160 μL of cells, which were then mixed again twice at low speeds. The cells and compounds were then pre-incubated for 30 minutes at 37° C. with 5% CO2.
The 10× stimulation mix was made by preparing a 100 ng/mL solution of human IFNγ in 10% RPMI. […] The cells were kept under conditions for stimulation for 18-24 hours at 37° C. with 5% CO2.
The cells were transferred to a 96 well round bottom plate for staining and then kept on ice for the duration of the staining procedure. Cells were spun down at 1000 rpm for 5 minutes at 4° C., following which the supernatant was removed. Following removal of the supernatant, 1 μL APC conjugated mouse anti-human ICAM-1 antibody was added per 100 μL FACS buffer. The cells were then incubated on ice in the dark for 30 minutes. Following incubation, 150 μL of FACS buffer was added and the cells were centrifuged at 1000 rpm for 5 minutes at 4° C., following which the supernatant was removed. […]
Both % live cells and ICAM-1 expression was analyzed. […]

activity on receptor tyrosine kinase (RTK) signaling [1]: little or no activity | EC50 (Syk): ~0.14 µM | EC50 (JAK3): ~0.18 µM
SMILES: C#CCOc1ccc(Nc2nc(Nc3ccc(C)c(S(N)(=O)=O)c3)ncc2F)cc1 [Compound I, N2-(3-Aminosulfonyl-4-methylphenyl)-5-fluoro-N-4-[4-(prop-2-ynyloxy)phenyl]-2,4-pyrimidinediamine]
activity on other cytokine signaling (IL-1β) (IL-1β): little or no activity | inhibition of cell proliferation (cell proliferation): not a broad inhibitor of cell proliferation | activity on other cytokine signaling (TNFα) (TNFα): little or no activity

SMILES: C#CCOc1ccc(Nc2nc(Nc3ccc(C)c(S(=O)(=O)NC(=O)CC)c3)ncc2F)cc1 [II, 5-fluoro-N2-(4-methyl-3-propionylaminosulfonylphenyl)-N-4-[4-(prop-2-ynyloxy)phenyl]-2,4-pyrimidinediamine]
IC50 (JAK1 and JAK3 kinases; Homo sapiens, Ramos B cells, IL-4 50 units/mL, 20-24 hours, CD23 staining, read-out: Example 3 IC50): 9.65 µM

SMILES: C#CCOc1ccc(Nc2nc(Nc3ccc(C)c(S(=O)(=O)NC(=O)CC)c3)ncc2F)cc1 [III, 5-fluoro-N2-(4-methyl-3-propionylaminosulfonylphenyl)-N-4-[4-(prop-2-ynyloxy)phenyl]-2,4-pyrimidinediamine mono-sodium salt]
IC50 (JAK1 and JAK3 kinases; Ramos B cells, IL-4 50 units/mL, 20-24 hours, CD23 staining, mono-sodium salt, read-out: Example 3 IC50): 3.97 µM

SMILES: C#CCOc1ccc(Nc2nc(Nc3ccc(C)c(S(=O)(=O)NC(=O)CC)c3)ncc2F)cc1 [IV, 5-Fluoro-N2-[4-methyl-3-(N-propionylaminosulfonyl)phenyl]-N4-[4-(2-propynyloxy)phenyl]-2,4-pyrimidinediamine Potassium Salt]
IC50 (JAK1 and JAK3 kinases; Homo sapiens, Ramos, read-out: Example 3 IC50, Ramos B cells, IL-4 50 units/mL, 20-24 hours, CD23 staining): 2.32 µM | IC50 (primary human T-cells; Homo sapiens, T-cell, 72 h): 5.56 µM

SMILES: C#CCOc1ccc(Nc2nc(Nc3ccc(C)c(S(=O)(=O)NC(=O)CC)c3)ncc2F)cc1 [V, 5-Fluoro-N2-[4-methyl-3-(N-propionylaminosulfonyl)phenyl]-N-4-[4-(2-propynyloxy)phenyl]-2,4-pyrimidinediamine Calcium Salt]
IC50 (JAK1 and JAK3 kinases; Ramos B cells, IL-4 50 units/mL, 20-24 hours, CD23 staining, Calcium Salt, read-out: Example 3 IC50): 0.373 µM | IC50 (JAK/Stat pathway): 25.1 µM

SMILES: C#CCOc1ccc(Nc2nc(Nc3ccc(C)c(S(=O)(=O)NC(=O)CC)c3)ncc2F)cc1 [VII, 5-Fluoro-N2-[4-methyl-3-(N-propionylaminosulfonyl)phenyl]-N4-[4-(2-propynyloxy)phenyl]-2,4-pyrimidinediamine Choline Salt]
IC50 (JAK1 and JAK3 kinases; Ramos B cells, IL-4 50 units/mL, 20-24 hours, CD23 staining, read-out: Example 3 IC50): 0.022 µM | IC50 (JAK/Stat pathway): 0.14 µM | IC50 (primary human T-cells; primary human T-cells, IL-2, 72 hours, ATP readout): 0.053 µM
